According to paper PMC9917560, “Design, Synthesis and Antimicrobial Evaluation of New N-(1-Hydroxy-1,3-dihydrobenzo[c][1,2]oxaborol-6-yl)(hetero)aryl-2-carboxamides as Potential Inhibitors of Mycobacterial Leucyl-tRNA Synthetase” (International Journal of Molecular Sciences, 2023):
≈ marks a conversion by molar mass, not a printed value. Read-outs that look alike come from different tables or passages of the source. Marks after values point to notes of the source that are not given here.

Assays:
Mtb H37Rv = test system: Mtb H37Rv; parameters: method as in PMID 27503647; conditions: compounds synthesized and evaluated by Palencia et al. ref [13]; cited from earlier work
[1] = test system: Mycolicibacterium aurum DSM 43,999 (ATCC 23366); test: Antimycobacterial microdilution (resazurin) vs M. aurum; type: cell-based; conditions: Middlebrook 7H9, resazurin, read-out: MIC M. aurum
[2] = test system: Aspergillus flavus CCM 8363; test: Antifungal microdilution broth (EUCAST); type: cell-based; conditions: Aspergillus flavus, CCM8363, read-out: MIC Aspergillus flavus
[3] = test system: Enterococcus faecalis CCM 4224 (ATCC 29212); test: Antibacterial microdilution broth (EUCAST); type: cell-based; conditions: read-out: MIC Enterococcus faecalis
[4] = test system: Klebsiella pneumoniae CCM 4415 (ATCC 10031); test: Antibacterial microdilution broth (EUCAST); type: cell-based; conditions: Klebsiella pneumoniae, read-out: MIC Klebsiella pneumoniae
[5] = test system: Mtb MATI (MDR clinical isolate); test: microbe, parasite or virus in culture; type: cell-based; conditions: Mycobacterium tuberculosis, read-out: MIC Mtb MATI
HepG2 cell line = test: Cytotoxicity screening, CellTiter 96 assay; conditions: Homo sapiens, HepG2, 24 h, read-out: IC50 HepG2
[6] = test system: Mycobacterium tuberculosis H37Ra ITM-M006710 (ATCC 9431); test: Antimycobacterial microdilution (resazurin) vs Mtb H37Ra; type: cell-based; conditions: Middlebrook 7H9, resazurin, recalculated from µg/mL, read-out: MIC Mtb H37Ra
[7] = test system: methicillin-resistant Staphylococcus aureus subsp. aureus (MRSA) CCM 4750 (ATCC 43300); test: microbe, parasite or virus in culture; type: cell-based; conditions: read-out: MIC Methicillin-resistant Staphylococcus aureus subsp. aureus
[8] = test system: Mycobacterium avium DSM 44,156 (ATCC 25291); test: Antimycobacterial microdilution (resazurin) vs M. avium; type: cell-based; conditions: Mycobacterium avium, Middlebrook 7H9, resazurin; read-out: MIC M. avium
[9] = test system: Aspergillus fumigatus ATCC 204305; test: Antifungal microdilution broth (EUCAST); type: cell-based; conditions: Aspergillus fumigatus, ATCC204305, read-out: MIC Aspergillus fumigatus
[10] = test system: Pseudomonas aeruginosa CCM 3955 (ATCC 27853); test: Antibacterial microdilution broth (EUCAST); type: cell-based; conditions: read-out: MIC Pseudomonas aeruginosa
[11] = test system: Mycobacterium tuberculosis H37Rv CNCTC My 331/88 (ATCC 27294); test: Microplate Alamar Blue assay vs Mtb H37Rv; type: cell-based; conditions: Mycobacterium tuberculosis, pH 6.6, MABA, Middlebrook 7H9 pH 6.6, recalculated from µg/mL; read-out: MIC Mtb H37Rv
[12] = test system: Candida albicans CCM 8320 (ATCC 24433); test: Antifungal microdilution broth (EUCAST); type: cell-based; conditions: Candida albicans, read-out: MIC Candida albicans
[13] = test system: Mtb IZAK (MDR clinical isolate); test: microbe, parasite or virus in culture; type: cell-based; conditions: Mycobacterium tuberculosis, read-out: MIC Mtb IZAK
[14] = test system: Candida krusei CCM 8271 (ATCC 6258); test: Antifungal microdilution broth (EUCAST); type: cell-based; conditions: Pichia kudriavzevii, read-out: MIC Candida krusei
[15] = test system: Lichtheimia corymbifera CCM 8077; test: Antifungal microdilution broth (EUCAST); type: cell-based; conditions: Lichtheimia corymbifera, CCM8077, read-out: MIC Lichtheimia corymbifera
[16] = test system: Staphylococcus epidermidis CCM 4418 (ATCC 12228); test: Antibacterial microdilution broth (EUCAST); type: cell-based; conditions: read-out: MIC Staphylococcus epidermidis
[17] = test system: Acinetobacter baumannii DSM 30007 (ATCC 19606); test: Antibacterial microdilution broth (EUCAST); type: cell-based; conditions: read-out: MIC Acinetobacter baumannii
[18] = test system: Trichophyton interdigitale CCM 8377 (ATCC 9533); test: Antifungal microdilution broth (EUCAST); type: cell-based; conditions: Trichophyton interdigitale, read-out: MIC Trichophyton interdigitale
[19] = test system: Escherichia coli CCM 3954 (ATCC 25922); test: Antibacterial microdilution broth (EUCAST); type: cell-based; conditions: Escherichia coli, read-out: MIC Escherichia coli
[20] = test system: Candida tropicalis CCM 8264 (ATCC 750); test: Antifungal microdilution broth (EUCAST); type: cell-based; conditions: read-out: MIC Candida tropicalis
[21] = test system: Mycolicibacterium smegmatis DSM 43,465 (ATCC 607); test: Antimycobacterial microdilution (resazurin) vs M. smegmatis; type: cell-based; conditions: Middlebrook 7H9, resazurin, read-out: MIC M. smeg.
[22] = test system: Mycobacterium kansasii DSM 44,162 (ATCC 12478); test: Antimycobacterial microdilution (resazurin) vs M. kansasii; type: cell-based; conditions: Middlebrook 7H9, resazurin, read-out: MIC M. kansasii
[23] = test system: Staphylococcus aureus subsp. aureus CCM 4223 (ATCC 29213); test: Antibacterial microdilution broth (EUCAST); type: cell-based; conditions: read-out: MIC Staphylococcus aureus subsp. aureus
[24] = test system: Candida parapsilosis CCM 8260 (ATCC 22019); test: Antifungal microdilution broth (EUCAST); type: cell-based; conditions: Lodderomyces parapsilosis, read-out: MIC Candida parapsilosis

Molecule: 3-aminomethylbenzoxaborole [Compound C00022]
- MIC Mtb H37Rv (Mtb H37Rv): 11.04 * µM

Molecule: O=C(Nc1ccc2c(c1)B(O)OC2)c1cncc(Cl)n1 [Compound 4, 6-chloro-N-(1-hydroxy-1,3-dihydrobenzo[c][1,2]oxaborol-6-yl)pyrazine-2-carboxamide]
- MIC [1]: 13.5 µM (≈ 3.91 µg/mL)
- MIC ([2]; 24h incubation): > 500 µM
- MIC ([2]; 48h incubation): > 500 µM
- MIC ([3]; 24h incubation): > 500 µM
- MIC ([3]; 48h incubation): > 500 µM
- MIC ([4]; 24h incubation): > 500 µM
- MIC ([4]; 48h incubation): > 500 µM
- MIC [5]: 86.4 µM (≈ 25 µg/mL)
- IC50 (HepG2 cell line): > 1000 µM
- MIC [6]: 108 µM (≈ 31.3 µg/mL)
- MIC ([7]; 24 h): 250 µM (≈ 72.4 µg/mL)
- MIC ([7]; 48 h): 250 µM (≈ 72.4 µg/mL)
- MIC [8]: 27 µM (≈ 7.81 µg/mL)
- MIC ([9]; 24h incubation): > 500 µM
- MIC ([9]; 48h incubation): > 500 µM
- melting point: 250.9 to 252.4 °C
- MIC ([10]; 24h incubation): > 500 µM
- MIC ([10]; 48h incubation): > 500 µM
- MIC [11]: 86.4 µM (≈ 25 µg/mL)
- MIC ([12]; 24h incubation): > 500 µM
- MIC ([12]; 48h incubation): > 500 µM
- MIC [13]: 86.4 µM (≈ 25 µg/mL)
- MIC ([14]; 24h incubation): > 500 µM
- MIC ([14]; 48h incubation): > 500 µM
- MIC ([15]; 24h incubation): > 500 µM
- MIC ([15]; 48h incubation): > 500 µM
- MIC ([16]; 24h incubation): 500 µM (≈ 145 µg/mL)
- MIC ([16]; 48h incubation): 500 µM (≈ 145 µg/mL)
- MIC ([17]; 24h incubation): > 500 µM
- MIC ([17]; 48h incubation): > 500 µM
- MIC ([18]; 72h incubation): > 500 µM
- MIC ([18]; 120h incubation): > 500 µM
- MIC ([19]; 24h incubation): > 500 µM
- MIC ([19]; 48h incubation): > 500 µM
- MIC ([20]; 24h incubation): > 500 µM
- MIC ([20]; 48h incubation): > 500 µM
- MIC [21]: 27 µM (≈ 7.81 µg/mL)
- MIC [22]: 27 µM (≈ 7.81 µg/mL)
- MIC ([23]; 24h incubation): 125 µM (≈ 36.2 µg/mL)
- MIC ([23]; 48h incubation): 125 µM (≈ 36.2 µg/mL)
- MIC ([24]; 24h incubation): > 500 µM
- MIC ([24]; 48h incubation): > 500 µM

Molecule: O=C(Nc1ccc2c(c1)B(O)OC2)c1cnc(Cl)cn1 [Compound 5, 5-chloro-N-(1-hydroxy-1,3-dihydrobenzo[c][1,2]oxaborol-6-yl)pyrazine-2-carboxamide]
- MIC [1]: 13.5 µM (≈ 3.91 µg/mL)
- MIC ([2]; 24h incubation): > 500 µM
- MIC ([2]; 48h incubation): > 500 µM
- MIC ([3]; 24h incubation): > 500 µM
- MIC ([3]; 48h incubation): > 500 µM
- MIC ([4]; 24h incubation): > 500 µM
- MIC ([4]; 48h incubation): > 500 µM
- MIC [5]: 43.2 µM (≈ 12.5 µg/mL)
- IC50 (HepG2 cell line): 82.4 µM
- MIC [6]: 27 µM (≈ 7.81 µg/mL)
- MIC ([7]; 24 h): > 500 µM
- MIC ([7]; 48 h): > 500 µM
- MIC [8]: 54 µM (≈ 15.6 µg/mL)
- MIC ([9]; 24h incubation): > 500 µM
- MIC ([9]; 48h incubation): > 500 µM
- melting point: 233.8 to 235.3 °C
- MIC ([10]; 24h incubation): > 500 µM
- MIC ([10]; 48h incubation): > 500 µM
- MIC [11]: 21.6 µM (≈ 6.25 µg/mL)
- MIC ([12]; 24h incubation): > 500 µM
- MIC ([12]; 48h incubation): > 500 µM
- MIC [13]: 43.2 µM (≈ 12.5 µg/mL)
- MIC ([14]; 24h incubation): > 500 µM
- MIC ([14]; 48h incubation): > 500 µM
- MIC ([15]; 24h incubation): > 500 µM
- MIC ([15]; 48h incubation): > 500 µM
- MIC ([16]; 24h incubation): > 500 µM
- MIC ([16]; 48h incubation): > 500 µM
- MIC ([17]; 24h incubation): > 500 µM
- MIC ([17]; 48h incubation): > 500 µM
- MIC ([18]; 72h incubation): > 500 µM
- MIC ([18]; 120h incubation): > 500 µM
- MIC ([19]; 24h incubation): > 500 µM
- MIC ([19]; 48h incubation): > 500 µM
- MIC ([20]; 24h incubation): > 500 µM
- MIC ([20]; 48h incubation): > 500 µM
- MIC [21]: 54 µM (≈ 15.6 µg/mL)
- MIC [22]: 108 µM (≈ 31.3 µg/mL)
- MIC ([23]; 24h incubation): > 500 µM
- MIC ([23]; 48h incubation): > 500 µM
- MIC ([24]; 24h incubation): > 500 µM
- MIC ([24]; 48h incubation): > 500 µM
